Source: US12458647B2, “Macrocyclic derivative and use thereof” (Guangzhou Joyo Pharmatech Co., Ltd., priority 2022, dated 2025)

What was measured:
[1] = Pharmacokinetic study in rats; assay type: in vivo; conditions: male SD rats; for AUC0-last / Cl / T1/2 / Vd / Cmax / TMax: whole blood
Protocol: To evaluate the pharmacokinetic behavior of the compounds of the present disclosure in male SD rats.
(§1) The compounds to be tested were dissolved in the vehicle (5% DMSO/10% solutol/85% water). Four male SD rats were divided into 2 groups, with 2 rats in each group. Group 1 rats were administered a single intravenous bolus injection (i.v.) of the compounds at a dose of 1 mg/kg. Group 2 rats were administered a single dose of the compounds by gavage (p.o.) at a dose of 10 mg/kg. Whole blood samples were collected at 0.083 (intravenous bolus group only), 0.25, 0.5, 1, 2, 4, 8 and 24 hours after dosing. The LC-MS/MS method was used to determine the concentration of the test compound in whole blood samples.

PSN-1 cell line = test: In vitro cell proliferation experiment (5 days), PSN-1; assay type: cell-based; conditions: PSN-1, 5 days; read-out: Inhibitory Activity IC50
Protocol: (§2) RPMI 1640 medium, DMEM, Ham's F12 medium, F12K medium, IMDM and penicillin/streptomycin antibiotics were purchased from Gibco, fetal bovine serum was purchased from Hyclone, Envision multilabel plate reader (PerkinElmer). […]
(§3) The test compound was diluted by 5-fold to 8 concentrations with a pipette, i.e., from 2 mM to 25.6 nM, and replicate wells were set up for the experiment. […] Another cell plate was prepared, and the signal value was read as the maximum value (the maximum value in the following equation) on the day of dosing for data analysis.
(§4) 50 μL of cell viability chemiluminescent detection reagent was added to the cell plate and incubated at room temperature for 30 minutes to stabilize the luminescence signal. A multilabel plate reader was used for reading. […]

[2] = Pharmacokinetic study in Beagle dogs; assay type: in vivo; conditions: male Beagle dogs; for AUC0-last / Cl / T1/2 / Vd / Cmax / TMax: whole blood
Protocol: To evaluate the pharmacokinetic behavior of the compounds of the present disclosure in male Beagle dogs.
as §1, with “male beagle dogs” for “male SD rats”, “2 groups of 2.” for “2 groups, with 2 rats in each group.”, “1 animals” for “1 rats”, “2 animals” for “2 rats”, “of 5” for “of 10”

RKN cell line = test: In vitro cell proliferation experiment (5 days), RKN; assay type: cell-based; conditions: read-out: Inhibitory Activity IC50
Protocol: as §2, §3, §4

| AUC0-last ([1]; i.v. 1 mg/kg) [µM·h] | Cl ([1]; i.v. 1 mg/kg) [L/h/kg] | T1/2 ([1]; i.v. 1 mg/kg) [h] | Vd ([1]; i.v. 1 mg/kg) [L/kg] | F(%) ([1]; p.o. 10 mg/kg) | AUC0-last ([1]; p.o. 10 mg/kg) [µM·h] | Cmax ([1]; p.o. 10 mg/kg) [µM] | T1/2 ([1]; p.o. 10 mg/kg) [h] | TMax ([1]; p.o. 10 mg/kg) [h] | AUC0-last ([2]; i.v. 1 mg/kg) [µM·h] | Cl ([2]; i.v. 1 mg/kg) [L/h/kg] | T1/2 ([2]; i.v. 1 mg/kg) [h] | Vd ([2]; i.v. 1 mg/kg) [L/kg] | F(%) ([2]; p.o. 5 mg/kg) | AUC0-last ([2]; p.o. 5 mg/kg) [µM·h] | Cmax ([2]; p.o. 5 mg/kg) [µM] | T1/2 ([2]; p.o. 5 mg/kg) [h] | TMax ([2]; p.o. 5 mg/kg) [h] | SMILES | IC50 (PSN-1 cell line) [nM] | IC50 (RKN cell line) [nM] |
| --- | --- | --- | --- | --- | --- | --- | --- | --- | --- | --- | --- | --- | --- | --- | --- | --- | --- | --- | --- | --- |
| 4.125 | 0.276 | 5.7 | 1.9 | 38 | 15.213 | 1.62 | 6.1 | 1.5 | 7.91 | 0.114 | 24.5 | 3.8 | 22 | 8.72 | 0.472 | 22.4 | 1.5 | CCn1c(-c2cc(N3CCN(C)CC3)cnc2C(C)OC)c2c3cc(ccc31)-c1csc(n1)CC(NC(=O)C1C(C)C1C)C(=O)N1NC(C(=O)OCC(C)(C)C2)C2CC1C2 (single isomer, unassigned) [Compound 6A] | 5.3 | 4.5 |
| 4.95 | 0.216 | 8.5 | 2.5 | 34.2 | 17.069 | 1.46 | 7.3 | 4.0 | 4.712 | 0.252 | 10.3 | 3.0 | 33.2 | 7.632 | 0.618 | 12.0 | 1.0 | CCn1c(-c2cc(N3CCN(C)CC3)cnc2C(C)OC)c2c3cc(ccc31)-c1csc(n1)CC(NC(=O)C1CC1C)C(=O)N1NC(C(=O)OCC(C)(C)C2)C2CC1C2 (single isomer, unassigned) [Compound 7A] | 10.5 | 7.5 |
